Assay results taken from patent USRE48461E1, “Modulation of androgen receptor expression” (Ionis Pharmaceuticals, Inc., priority 2012, dated 2021).

Experiments:
Type in all cases: cell-based, human
full length AR mRNA = test: Full-length AR RNA in 22RV1 cells (complete, CSS+DHT medium); settings: RNAiMax, 48 hrs
Protocol: (§1) Cells were plated at 1,000 cells per well. […] After an incubation period of 48 hrs, RNA levels of full length AR, the V7 variant, PSA and TMPRSS2 were measured.
(§2) After an incubation period of 48 hrs, RNA levels of full length AR, the V7 variant, PSA and TMPRSS2 were measured.
(§3) Cells were plated at 2,000 cells per well and cultured in CSS media for 16 hours. […] After 4 hrs, 1 nM DHT was added. […] After an incubation period of 48 hrs, RNA levels of AR, AR V7 variant, PSA and TMPRSS2 were measured.

[1] = test system: prostate-specific antigen (PSA) mRNA; test: Time-course PSA expression in C4-2B cells
Protocol: C4-2B cells were plated at 1,000 cells per well in complete medium. […] ISIS 549148 was included as a negative control. […] After a treatment period of 8 hours, 24 hours, and 48 hours, AR expression was measured with primer probe set hAR-LTS00943. Results are presented in Tables 70-72 as percent expression of AR, relative to non-treated cells.
Expression analysis of prostate-specific antigen (PSA) and TMPRSS2 were also analyzed. Results are presented in Tables 73-75 as percent inhibition of PSA expression and Tables 76-78 as percent inhibition of TMPRSS2 expression, relative to non-treated cells.

AR mRNA = test: AR RNA expression in C4-2B cells (complete, CSS+DHT medium; Example 30); settings: 48 hrs
Protocol: (§4) Cells were plated at 1,000 cells per well. […] ISIS 549148 was included as a negative control. […] After an incubation period of 48 hrs, RNA levels of AR, PSA and TMPRSS2 were measured.
(§5) Cells were plated at 2,000 cells per well and cultured in CSS media with 1 nM DHT. […] ISIS 549148 was included as a negative control. […] After an incubation period of 48 hrs, RNA levels of AR, PSA and TMPRSS2 were measured. In the absence of DHT, AR expression in C4-2 cells was 188%, PSA expression was 43% and TMPRSS2 expression was 27% compared to the untreated control.

TMPRSS2 mRNA [2] = test: TMPRSS2 expression in C4-2B cells (Example 30); settings: 48 hrs
Protocol: as §4, §5

TMPRSS2 mRNA [3] = test: TMPRSS2 expression in 22RV1 cells; settings: RNAiMax, 48 hrs
Protocol: as §1, §2, §3

LNCaP cells = test: LNCaP cell proliferation (complete or CSS+DHT medium); settings: 5 days; for Proliferation (% untreated control) in LNCaP cells cultured in CSS + DHT medium: CSS + 1 nM DHT medium
Protocol: After a treatment period of 5 days in complete medium or CSS+1 nM DHT medium, the proliferative capacity of the cancer cells was measured with using CellTiter 96® AQueous One Solution or CellTiter-Glo® solution Cell Proliferation kit (Promega), following the manufacturer's instructions. […] Treatment with ISIS oligonucleotides in CSS+DHT medium reduced the proliferative capacity to a greater extent than treatment with MVD-3100. The proliferative capacity of cells cultured in CSS medium without DHT is 17% of untreated control levels.

In the case of “GGCTACTACGCCGTCA (3-10-3 (S)-cEt gapmer, chemistry not fully specified) [ISIS 549148, reference compound]”, the “Percent inhibition of full-length AR” value (full length AR mRNA; CSS + DHT medium, 1.34 nM) is reported as 2%, the “Percent inhibition of full-length AR” value (full length AR mRNA; CSS + DHT medium, 4.0 nM) is reported as 13% and the “Percent inhibition of full-length AR” value (full length AR mRNA; CSS + DHT medium, 13.4 nM) is reported as 22%. The “Percent inhibition of full-length AR” value (full length AR mRNA; complete medium, 1.34 nM) was 6%, the “Percent inhibition of full-length AR” value (full length AR mRNA; complete medium, 4.0 nM) was 0% and the “Percent inhibition of full-length AR” value (full length AR mRNA; complete medium, 13.4 nM) was 11%. For the same sequence, the “Percent inhibition of full-length AR” value (full length AR mRNA; complete medium, 40 nM) was 17%, the “Percent inhibition of PSA expression compared to the control group in 8 hours” value (“Percent inhibition … in 8 hours” below) ([1]; 0.04 μM) was 1% and the “Percent inhibition of PSA expression compared to the control group in 24 hours” value (“Percent inhibition … in 24 hours” below) ([1]; 0.04 μM) was 22%. The “Percent inhibition of PSA expression compared to the control group in 48 hours” value (“Percent inhibition … in 48 hours” for short) ([1]; 0.04 μM) was 2%, the “Percent inhibition … in 8 hours” value ([1]; 0.2 μM) was 8% and the “Percent inhibition … in 24 hours” value ([1]; 0.2 μM) was 13%. For the same sequence, the “Percent inhibition … in 48 hours” value ([1]; 0.2 μM) was 0%, the “Percent inhibition … in 8 hours” value ([1]; 1 μM) was 8% and the “Percent inhibition … in 24 hours” value ([1]; 1 μM) was 16%. The “Percent inhibition … in 48 hours” value ([1]; 1 μM) was 18%, the “Percent inhibition … in 8 hours” value ([1]; 5.0 μM) was 0% and the “Percent inhibition … in 24 hours” value ([1]; 5.0 μM) was 6%. The “Percent inhibition … in 48 hours” value ([1]; 5.0 μM) was 10%, the “Percent expression of AR” value (AR mRNA; CSS + DHT medium, 0.04 μM) was 91% and the “Percent expression of AR” value (AR mRNA; CSS + DHT medium, 0.2 μM) was 104%. The “Percent expression of AR” value (AR mRNA; CSS + DHT medium, 1 μM) was 101%, the “Percent expression of AR” value (AR mRNA; CSS + DHT medium, 5.0 μM) was 95% and the “Percent expression of AR” value (AR mRNA; complete medium, 0.04 μM) was 101%. The “Percent expression of AR” value (AR mRNA; complete medium, 0.2 μM) was 91%, the “Percent expression of AR” value (AR mRNA; complete medium, 1 μM) was 88% and the “Percent expression of AR” value (AR mRNA; complete medium, 5.0 μM) was 87%. The “Percent inhibition of TMPRSS2 expression” value (TMPRSS2 mRNA [2]; CSS + DHT medium, 0.04 μM) was 0%, the “Percent inhibition of TMPRSS2 expression” value (TMPRSS2 mRNA [2]; CSS + DHT medium, 0.2 μM) was 0% and the “Percent inhibition of TMPRSS2 expression” value (TMPRSS2 mRNA [2]; CSS + DHT medium, 1 μM) was 0%. The “Percent inhibition of TMPRSS2 expression” value (TMPRSS2 mRNA [2]; CSS + DHT medium, 5.0 μM) was 3%, the “Percent inhibition of TMPRSS2 expression” value (TMPRSS2 mRNA [2]; complete medium, 0.04 μM) was 0% and the “Percent inhibition of TMPRSS2 expression” value (TMPRSS2 mRNA [2]; complete medium, 0.2 μM) was 2%. For the same sequence, the “Percent inhibition of TMPRSS2 expression” value (TMPRSS2 mRNA [2]; complete medium, 1 μM) was 4%, the “Percent inhibition of TMPRSS2 expression” value (TMPRSS2 mRNA [2]; complete medium, 5.0 μM) was 0% and the “Percent inhibition of TMPRSS2 expression” value (TMPRSS2 mRNA [3]; CSS + DHT medium, 1.34 nM) was 0%. The “Percent inhibition of TMPRSS2 expression” value (TMPRSS2 mRNA [3]; CSS + DHT medium, 4.0 nM) was 3%, the “Percent inhibition of TMPRSS2 expression” value (TMPRSS2 mRNA [3]; CSS + DHT medium, 13.4 nM) was 1% and the “Percent inhibition of TMPRSS2 expression” value (TMPRSS2 mRNA [3]; complete medium, 1.34 nM) was 15%. The “Percent inhibition of TMPRSS2 expression” value (TMPRSS2 mRNA [3]; complete medium, 4.0 nM) was 9%, the “Percent inhibition of TMPRSS2 expression” value (TMPRSS2 mRNA [3]; complete medium, 13.4 nM) was 14% and the “Percent inhibition of TMPRSS2 expression” value (TMPRSS2 mRNA [3]; complete medium, 40 nM) was 4%. The “Proliferation (% untreated control) in LNCaP cells cultured in CSS + DHT medium” value (LNCaP cells; 0.04 μM) was 112 % untreated control, the “Proliferation (% untreated control) in LNCaP cells cultured in CSS + DHT medium” value (LNCaP cells; 0.2 μM) was 96 % untreated control and the “Proliferation (% untreated control) in LNCaP cells cultured in CSS + DHT medium” value (LNCaP cells; 1 μM) was 95 % untreated control. The “Proliferation (% untreated control) in LNCaP cells cultured in CSS + DHT medium” value (LNCaP cells; 5.0 μM) was 89 % untreated control, the “Proliferation (% untreated control) in LNCaP cells cultured in complete medium” value (LNCaP cells; 0.04 μM) was 101 % untreated control and the “Proliferation (% untreated control) in LNCaP cells cultured in complete medium” value (LNCaP cells; 0.2 μM) was 95 % untreated control. The “Proliferation (% untreated control) in LNCaP cells cultured in complete medium” value (LNCaP cells; 1 μM) was 94 % untreated control and the “Proliferation (% untreated control) in LNCaP cells cultured in complete medium” value (LNCaP cells; 5.0 μM) was 110 % untreated control.
